According to patent US11773078B2, “Furin inhibitors” (Glaxosmithkline Intellectual Property Development Limited, priority 2018, dated 2023):
Structures can show the parent of a compound that is named as a salt.

How the values were obtained:
[1] = molecular target: T1, Furin (108-574-Tev-Flag-His) enzyme (Homo sapiens, UniProt P09958); test: Furin enzyme assay; format: biochemical
T1 construct: Furin (108-574-Tev-Flag-His) enzyme was expressed and purified from CHO cells; TEV cleavage site (C); FLAG (C); His (C); made in house; host or cells: CHO cells
T1 sequence (P09958 108-574): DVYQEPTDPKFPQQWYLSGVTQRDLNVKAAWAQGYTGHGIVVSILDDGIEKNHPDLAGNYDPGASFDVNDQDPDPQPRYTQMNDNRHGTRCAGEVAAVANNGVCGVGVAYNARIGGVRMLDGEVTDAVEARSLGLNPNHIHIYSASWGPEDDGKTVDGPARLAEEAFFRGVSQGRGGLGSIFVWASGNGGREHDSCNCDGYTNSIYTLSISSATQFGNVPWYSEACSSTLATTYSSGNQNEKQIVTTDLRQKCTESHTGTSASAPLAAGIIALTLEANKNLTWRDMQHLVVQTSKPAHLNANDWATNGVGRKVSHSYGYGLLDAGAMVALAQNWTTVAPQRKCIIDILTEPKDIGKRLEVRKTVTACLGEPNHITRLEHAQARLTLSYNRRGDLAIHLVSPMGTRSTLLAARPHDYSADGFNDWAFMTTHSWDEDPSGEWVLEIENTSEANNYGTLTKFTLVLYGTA
Method: Reactions were performed in black 384-well polystyrene low volume plates (Greiner). Furin (108-574-Tev-Flag-His) enzyme was expressed and purified from CHO cells. Compounds of the invention were dissolved in DMSO (1.0 mM) and serially diluted 1 to 3 with DMSO through eleven dilutions to provide a final compound concentration range from 0.00017 to 10 μM. 0.05 μL of each concentration was transferred to the corresponding well of an assay plate, and then 5 μL of 40 pM furin enzyme in assay buffer (100 mM HEPES pH7.5, 1 mM CaCl2 and 0.005% Triton X-100) was added using a Multidrop Combi (Thermo) to the compound plates, and mixed by inversion. […] The plates were centrifuged at 500×g for 1 minute and incubated at room temperature for two hours. Enzyme inhibition is then quantified using an Envision instrument (PerkinElmer).
Data were analyzed using AbaseXE 7.3, utilizing a four-parameter curve fit equation. The following values were used to define limits and/or constraints for each of the four parameters: • Minimum—limit −10 to 10 • Maximum—90 to 110 • Slope—limit 0.5 to 2.0 • pXC50 confidence interval—10
Raw counts obtained from the respective plate reader (Perkin Elmer) were captured for data analysis. Curves were generated using the equation: Y=A+[(B−A)/(1+(10^C/x)^D)] • where: A=minimum response • B=maximum response • C=log 10*XC50 • D=slope factor • x=log 10 compound concentration [M]
The results were recorded as pXC50 values (−C in the above equation)

[2] = molecular target: T2, furin (endogenous protease) in U20S cells (Homo sapiens, UniProt P09958); test: Furin cell-based assay (image-based, Golgi-targeted GFP with BMP10 furin/PCSK cleavage site); settings: 24-hour incubation, read-out: furin golgi cell pXC50 (converted);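 note: Read-out is mean GFP fluorescence of Golgi puncta per cell by high-content imaging, retained when furin inhibited, over an eleven-point 0.00017–10 µM series, four-parameter fit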
T2 construct: the endogenous protease cleaves GFP; endogenous in cells; host or cells: U2OS cells transduced with a BacMam reporter
T2 sequence (P09958 108-794): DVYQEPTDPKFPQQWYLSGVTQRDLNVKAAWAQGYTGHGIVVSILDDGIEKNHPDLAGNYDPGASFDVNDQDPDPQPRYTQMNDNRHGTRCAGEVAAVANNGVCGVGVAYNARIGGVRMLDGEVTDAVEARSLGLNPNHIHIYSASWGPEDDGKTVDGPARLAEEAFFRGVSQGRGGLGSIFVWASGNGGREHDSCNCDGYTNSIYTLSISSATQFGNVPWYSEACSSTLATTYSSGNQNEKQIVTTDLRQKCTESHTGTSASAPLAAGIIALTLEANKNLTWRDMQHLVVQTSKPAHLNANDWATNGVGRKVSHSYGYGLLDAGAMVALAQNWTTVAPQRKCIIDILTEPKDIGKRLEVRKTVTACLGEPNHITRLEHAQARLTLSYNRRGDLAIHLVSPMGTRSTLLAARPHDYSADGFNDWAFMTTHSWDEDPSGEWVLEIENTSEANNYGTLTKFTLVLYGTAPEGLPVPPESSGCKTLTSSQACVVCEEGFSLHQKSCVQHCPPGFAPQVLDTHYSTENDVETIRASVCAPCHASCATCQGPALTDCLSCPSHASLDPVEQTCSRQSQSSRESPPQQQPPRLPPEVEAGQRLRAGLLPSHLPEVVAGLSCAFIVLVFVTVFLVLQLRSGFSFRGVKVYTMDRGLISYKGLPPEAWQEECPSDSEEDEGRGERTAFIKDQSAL

SMILES	furin enzyme pIC50 [1]	EC50 [2] [nM]	IC50 ([1]; read-out: furin enzyme pIC50 (converted)) [nM]
NS(=O)(=O)CC1CCN(Cc2cc(Oc3ccc(N4CCN(CCC(=O)O)CC4)nc3)nc(-c3cc(Cl)cc(Cl)c3)c2)CC1 [Example 38, 3-(4-(5-((6-(3,5-Dichlorophenyl)-4-((4-(sulfamoylmethyl)piperidin-1-yl)methyl)pyridin-2-yl)oxy)pyridin-2-yl)piperazin-1-yl)propanoic acid]	9	126	
CS(=O)(=O)CC1CCN(Cc2cc(Oc3ccc(N4CCN(CCC(=O)O)CC4)nc3)nc(-c3cc(Cl)cc(Cl)c3)c2)CC1 [Example 39, 3-(4-(5-((6-(3,5-Dichlorophenyl)-4-((4-((methylsulfonyl)methyl)piperidin-1-yl)methyl)pyridin-2-yl)oxy)pyridin-2-yl)piperazin-1-yl)propanoic acid]	8.3	79.4	
CNC(=O)NCC1CCN(Cc2cc(Oc3ccc(N4CCN(CCO)CC4)nc3)nc(-c3cc(Cl)cc(Cl)c3)c2)CC1 [Example 40, 1-((1-((2-(3,5-Dichlorophenyl)-6-((6-(4-(2-hydroxyethyl)piperazin-1-yl)pyridin-3-yl)oxy)pyridin-4-yl)methyl)piperidin-4-yl)methyl)-3-methylurea]	7.6	10	
CC(=O)NCC1CCN(Cc2cc(Oc3ccc(N)cc3)cc(-c3cc(Cl)cc(Cl)c3)c2)CC1 [Example 42, N-((1-((5-(4-Aminophenoxy)-3′,5′-dichloro-[1,1′-biphenyl]-3-yl)methyl)piperidin-4-yl)methyl)acetamide]	7.7	316	
CS(=O)(=O)NCC1CCN(Cc2cc(Oc3ccc(N4CCN(CCC(=O)O)CC4)nc3)nc(-c3cc(Cl)cc(Cl)c3)c2)CC1 [Example 44]	9.5	25.1	
CC(=O)NCC1CCN(Cc2cc(Oc3cnc(N)c(F)c3)cc(-c3cc(Cl)cc(Cl)c3)c2)CC1 [Example 46, N-((1-((5-((6-Amino-5-fluoropyridin-3-yl)oxy)-3′,5′-dichloro-[1,1′-biphenyl]-3-yl)methyl)piperidin-4-yl)methyl)acetamide, 2 hydrochloride]	7	501	
CNC(=O)NCC1CCN(Cc2cc(Oc3cnc(N4CCN(CCO)CC4)nc3)nc(-c3cc(Cl)cc(Cl)c3)c2)CC1 [Example 47, 1-((1-((2-(3,5-Dichlorophenyl)-6-((2-(4-(2-hydroxyethyl)piperazin-1-yl)pyrimidin-5-yl)oxy)pyridin-4-yl)methyl)piperidin-4-yl)methyl)-3-methylurea, 4 hydrochloride]	8.9	3.98	
CNC(=O)NCC1CCN(Cc2cc(Oc3cnc(N4CCN(CCCS(N)(=O)=O)CC4)nc3)nc(-c3cc(Cl)cc(Cl)c3)c2)CC1 [Example 48, 3-((4-(5-((6-(3,5-Dichlorophenyl)-4-((4-((3-methylureidolmethyl)piperidin-1-yl)methyl)pyridin-2-yl)oxy)pyrimidin-2-yl)piperazin-1-yl)propane-1-sulfonamide. 4 hydrochloride]	9.4	2.51	
COC(=O)NCC1CCN(Cc2cc(Oc3cnc(N4CCNCC4)nc3)nc(-c3cc(Cl)cc(Cl)c3)c2)CC1 [Example 49, Methyl((1-((2-(3,5-dichlorophenyl)-6-((2-(piperazin-1-yl)pyrimidin-5-yl)oxy)pyridin-4-yl)methyl)piperidin-4-yl)methyl)carbamate, 4 hydrochloride]	9.1	20	
CNCc1cc(Oc2ccc(N3CCN(CCC(=O)O)CC3)nc2)nc(-c2cc(Cl)cc(Cl)c2)c1 [Example 50, 3-(4-(5-((6-(3,5-Dichlorophenyl)-4-((methylamino)methyl)pyridin-2-yl)oxy)pyridin-2-yl)piperazin-1-yl)propanoic acid, 4 hydrochloride]	8.1	126	
COC(=O)NCC1(F)CCN(Cc2cc(Oc3cnc(N4CCN(CCC(=O)O)CC4)nc3)nc(-c3cc(Cl)cc(Cl)c3)c2)CC1 [Example 51, 3-((4-(5-((6-(3,5-Dichlorophenyl)-4-((4-fluoro-4-(((methoxycarbonyl)amino)methyl)piperidin-1-yl)methyl)pyridin-2-yl)oxy)pyrimidin-2-yl)piperazin-1-yl)propanoic acid, 4 hydrochloride]	8.2	158	
CN1CCN(c2ncc(Oc3cc(CN4CCC(CCO)CC4)cc(-c4cc(Cl)cc(Cl)c4)n3)cn2)CC1 [Example 52, 2-(1-((2-(3,5-Dichlorophenyl)-6-((2-(4-methylpiperazin-1-yl)pyrimidin-5-yl)oxy)pyridin-4-yl)methyl)piperidin-4-yl)ethanol]	9.8	1.26	
CN1CCN(c2ncc(Oc3cc(CN4CCC(OCC(=O)O)CC4)cc(-c4cc(Cl)cc(Cl)c4)n3)cn2)CC1 [Example 53, 2-((1-((2-(3,5-Dichlorophenyl)-6-((2-(4-methylpiperazin-1-yl)pyrimidin-5-yl)oxy)pyridin-4-yl)methyl)piperidin-4-yl)oxy)acetic acid, 4 hydrochloride]	8.7	15.8	
NC(=O)OCCN1CCN(Cc2cc(Oc3cnc(N4CCN(CCC(=O)O)CC4)nc3)nc(-c3cc(Cl)cc(Cl)c3)c2)CC1 [Example 54, 3-(4-(5-((4-((4-(2-(Carbamoyloxy)ethyl)piperazin-1-yl)methyl)-6-(3,5-dichlorophenyl)pyridin-2-yl)oxy)pyrimidin-2-yl)piperazin-1-yl)propanoic acid, 5 hydrochloride]	8.2	158	
NC(=O)OCCN1CCN(Cc2cc(Oc3ccc(N4CCN(CCC(=O)O)CC4)nc3)nc(-c3cc(Cl)cc(Cl)c3)c2)CC1 [Example 55, 3-(4-(5-((4-((4-(2-(carbamoyloxy)ethyl)piperazin-1-yl)methyl)-6-(3,5-dichlorophenyl)pyridin-2-yl)oxy)pyridin-2-yl)piperazin-1-yl)propanoic acid]	8.2	251	
COC(=O)NCC1CCN(Cc2cc(Oc3cnc(N4CC5CCC(C4)N5CCC(=O)O)nc3)nc(-c3cc(Cl)cc(Cl)c3)c2)CC1 [Example 56, 3-(3-(5-((6-(3,5-dichlorophenyl)-4-((4-(((methoxycarbonyl)amino)methyl)piperidin-1-yl)methyl)pyridin-2-yl)oxy)pyrimidin-2-yl)-3,8-diazabicyclo[3.2.1]octan-8-yl)propanoic acid]		5.01	0.0316
CC(CCN1CCN(c2ncc(Oc3cc(CN4CCC(CCO)CC4)cc(-c4cc(Cl)cc(Cl)c4)n3)cn2)CC1)C(=O)O (stereo not drawn) [Example 57, 4-(4-(5-((6-(3,5-dichlorophenyl)-4-((4-(2-hydroxyethyl)piperidin-1-yl)methyl)pyridin-2-yl)oxy)pyrimidin-2-yl)piperazin-1-yl)-2-methylbutanoic acid]	10.3	10	
O=C(O)CCN1CCN(c2ccc(Oc3cc(CN4CCC(CNC(=O)C5CC5)CC4)cc(-c4cc(Cl)cc(Cl)c4)n3)cn2)CC1 [Example 58, 3-(4-(5-((4-((4-(cyclopropanecarboxamidomethyl)piperidin-1-yl)methyl)-6-(3,5-dichlorophenyl)pyridin-2-yl)oxy)pyridin-2-yl)piperazin-1-yl)propanoic acid]	9.2	15.8	
